Data as given in ChEMBL document CHEMBL1201862, “PubChem BioAssay data set” (2004).
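Following 48 hours of exposure in 96-well plates, responses at five concentrations were used to interpolate endpoints linearly. GI50 is the concentration that inhibits growth by half.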 Active and inactive are the calls of the source. Rule as the data show it: active = GI50 up to about 1.1 µM and inactive = higher.

What was measured:
Assay in all cases: growth of human tumour cells (NCI), 48 h
RPMI-8226 = tested on: RPMI-8226
DU-145 = tested on: DU-145
SF-268 = tested on: SF-268
HCT-116 = tested on: HCT-116
HL-60 = tested on: HL-60
UACC-257 = tested on: UACC-257
COLO 205 = tested on: COLO 205
RXF 393 = tested on: RXF 393
IGROV-1 = tested on: IGROV-1
MDA-MB-435 = tested on: MDA-MB-435
HCT-15 = tested on: HCT-15
EKVX = tested on: EKVX
Malme-3M = tested on: Malme-3M
SN12C = tested on: SN12C
NCI-H23 = tested on: NCI-H23
NCI-H226 = tested on: NCI-H226
SNB-75 = tested on: SNB-75
SW-620 = tested on: SW-620
TK-10 = tested on: TK-10
MDA-MB-231 = tested on: MDA-MB-231

Row | Structure (SMILES) | GI50 (RPMI-8226) | GI50 (DU-145) | GI50 (SF-268) | GI50 (HCT-116) | GI50 (HL-60) | GI50 (UACC-257) | GI50 (COLO 205) | GI50 (RXF 393) | GI50 (IGROV-1) | GI50 (MDA-MB-435) | GI50 (HCT-15) | GI50 (EKVX) | GI50 (Malme-3M) | GI50 (SN12C) | GI50 (NCI-H23) | GI50 (NCI-H226) | GI50 (SNB-75) | GI50 (SW-620) | GI50 (TK-10) | GI50 (MDA-MB-231)
1 | COc1cc(S(=O)(=O)Nc2ccc(-c3csc(N4C(=O)CSC4c4cccs4)n3)cc2)ccc1Cl (centres undefined) | 8.67 µM (inactive) | 22.1 µM (inactive) | 19.8 µM (inactive) | 31.3 µM (inactive) | 14.5 µM (inactive) | 20.3 µM (inactive) | 31.8 µM (inactive) | 11.2 µM (inactive) | 27.1 µM (inactive) | 29.5 µM (inactive) | 32.6 µM | 50.8 µM (inactive) | 27.9 µM (inactive) | 25.8 µM (inactive) | 31.3 µM (inactive) | 27.9 µM (inactive) | 20.2 µM (inactive) | 24.7 µM (inactive) | – | –
2 | CC(=O)Nc1ccc(C2=N/C(=C\c3ccc(Cl)cc3)C(=O)O2)cc1 | 40.2 µM (inactive) | – | 34.3 µM (inactive) | 36 µM (inactive) | 30.3 µM (inactive) | 45.7 µM (inactive) | 39.2 µM (inactive) | 53.5 µM (inactive) | > 100 µM (inactive) | – | 19.9 µM | > 100 µM (inactive) | 87.7 µM (inactive) | 28.2 µM (inactive) | 36.4 µM (inactive) | > 100 µM (inactive) | 40.4 µM (inactive) | 8.91 µM (inactive) | > 100 µM (inactive) | –
3 | Cc1cc(Br)cc(C)c1NC(=O)C(=O)CC(=O)c1sc(-n2nc(-c3ccccc3)cc2-c2ccccc2)nc1C | > 100 µM (inactive) | – | > 100 µM (inactive) | > 100 µM (inactive) | > 100 µM (inactive) | > 100 µM (inactive) | > 100 µM (inactive) | > 100 µM (inactive) | > 100 µM (inactive) | – | > 100 µM | > 100 µM (inactive) | > 100 µM (inactive) | > 100 µM (inactive) | > 100 µM (inactive) | > 100 µM (inactive) | 49.9 µM (inactive) | > 100 µM (inactive) | > 100 µM (inactive) | –
4 | CCc1cccc(C)c1NC(=S)NC(=O)c1ccccc1C(=O)NC(=S)Nc1c(C)cccc1CC | 60 µM (inactive) | – | > 100 µM (inactive) | 71.4 µM (inactive) | 40.6 µM (inactive) | > 100 µM (inactive) | 61.1 µM (inactive) | > 100 µM (inactive) | 93.8 µM (inactive) | – | > 100 µM | 59.6 µM (inactive) | > 100 µM (inactive) | > 100 µM (inactive) | 35.6 µM (inactive) | 50.4 µM (inactive) | > 100 µM (inactive) | 75.3 µM (inactive) | > 100 µM (inactive) | –
5 | CC(C)=CCC/C(C)=C/CC/C(C)=C/CC/C(C=O)=C/CC/C(C)=C\CC/C(C)=C/CC/C(C)=C/CC/C(C)=C/CC1=CC(=O)C=CC1=O | 37.4 µM (inactive) | > 100 µM (inactive) | > 100 µM (inactive) | 73.5 µM (inactive) | – | 48 µM (inactive) | 73.8 µM (inactive) | – | 31.8 µM (inactive) | 56.4 µM (inactive) | > 100 µM | > 100 µM (inactive) | 21.8 µM (inactive) | > 100 µM (inactive) | 22.9 µM (inactive) | – | 38.1 µM (inactive) | > 100 µM (inactive) | > 100 µM (inactive) | > 100 µM (inactive)
6 | CC(=O)Nc1ccc(/C=c2\sc3nnc(/C=C/c4ccccc4)n3c2=O)cc1 | > 50 µM (inactive) | – | > 50 µM (inactive) | > 50 µM (inactive) | > 50 µM (inactive) | > 50 µM (inactive) | > 50 µM (inactive) | > 50 µM (inactive) | > 50 µM (inactive) | – | – | > 50 µM (inactive) | > 50 µM (inactive) | > 50 µM (inactive) | > 50 µM (inactive) | > 50 µM (inactive) | > 50 µM (inactive) | > 50 µM (inactive) | > 50 µM (inactive) | –
7 | Cc1ccc(S(=O)(=O)/N=C(\NN)Nc2ccc(Cl)cc2)cc1 | > 100 µM (inactive) | > 100 µM (inactive) | – | > 100 µM (inactive) | > 100 µM (inactive) | > 100 µM (inactive) | > 100 µM (inactive) | 60.7 µM (inactive) | > 100 µM (inactive) | – | > 100 µM | > 100 µM (inactive) | – | > 100 µM (inactive) | > 100 µM (inactive) | 58.3 µM (inactive) | 37.8 µM (inactive) | > 100 µM (inactive) | > 100 µM (inactive) | > 100 µM (inactive)
8 | C/C(=N\NC(=S)N1CCC(C2CCN(C(=S)N/N=C(\C)c3ccccn3)CC2)CC1)c1ccccn1 | > 100 µM (inactive) | – | > 100 µM (inactive) | 29.2 µM (inactive) | > 100 µM (inactive) | > 100 µM (inactive) | > 100 µM (inactive) | 71.8 µM (inactive) | 68.7 µM (inactive) | – | – | > 100 µM (inactive) | > 100 µM (inactive) | 86.3 µM (inactive) | 59.7 µM (inactive) | 60.7 µM (inactive) | 28.2 µM (inactive) | > 100 µM (inactive) | 53.8 µM (inactive) | –
9 | O=C1c2ccccc2-c2c1c(-c1ccc(O)cc1O)nc1ccc3ccccc3c21 | > 100 µM (inactive) | > 100 µM (inactive) | > 100 µM (inactive) | > 100 µM (inactive) | – | > 100 µM (inactive) | > 100 µM (inactive) | – | – | > 100 µM (inactive) | > 100 µM | > 100 µM (inactive) | > 100 µM (inactive) | > 100 µM (inactive) | > 100 µM (inactive) | > 100 µM (inactive) | > 100 µM (inactive) | > 100 µM (inactive) | – | 27.8 µM (inactive)
10 | Cn1c(=O)c(C(c2ccccc2)c2c(O)c3ccccc3n(C)c2=O)c(O)c2ccccc21 | > 100 µM (inactive) | – | > 100 µM (inactive) | > 100 µM (inactive) | 32.4 µM (inactive) | > 100 µM (inactive) | > 100 µM (inactive) | > 100 µM (inactive) | > 100 µM (inactive) | – | > 10 µM | > 100 µM (inactive) | > 100 µM (inactive) | > 100 µM (inactive) | > 100 µM (inactive) | 0.0283 µM (active) | 38.1 µM (inactive) | > 100 µM (inactive) | > 100 µM (inactive) | –
11 | CC(C)CCCC(C)[C@H]1CCC2[C@H]3C(CC[C@@]21C)[C@@]1(C)CCC=C[C@]12C[C@@H]2[C@@H]3O (some centres undefined) | > 100 µM (inactive) | – | > 100 µM (inactive) | > 100 µM (inactive) | > 100 µM (inactive) | > 100 µM (inactive) | > 100 µM (inactive) | > 100 µM (inactive) | > 100 µM (inactive) | – | > 100 µM | > 100 µM (inactive) | > 100 µM (inactive) | > 100 µM (inactive) | – | > 100 µM (inactive) | > 100 µM (inactive) | > 100 µM (inactive) | > 100 µM (inactive) | –
12 | Cc1ccc(S(=O)(=O)N/N=C2/CCC3(O)CC2(C)CCC2[C@H]3CC2(C)C)cc1 (some centres undefined) | 38.4 µM (inactive) | 36.6 µM (inactive) | 68.1 µM (inactive) | 24.8 µM (inactive) | 31.3 µM (inactive) | 37.8 µM (inactive) | 16.3 µM (inactive) | – | 23.5 µM (inactive) | 27.8 µM (inactive) | 27.1 µM | 31.7 µM (inactive) | 35.3 µM (inactive) | 33.3 µM (inactive) | 37.3 µM (inactive) | 27.2 µM (inactive) | 21.4 µM (inactive) | 27.9 µM (inactive) | 34.3 µM (inactive) | –
13 | CC(C)[Si](OCC1CC(C#N)OC(C)(C)O1)(C(C)C)C(C)C (centres undefined) | 14.2 µM (inactive) | – | 26.9 µM (inactive) | 16.5 µM (inactive) | 13 µM (inactive) | 17.3 µM (inactive) | 17.3 µM (inactive) | 17.1 µM (inactive) | 28.2 µM (inactive) | – | 27.8 µM | 30.3 µM (inactive) | 22.9 µM (inactive) | 32.4 µM (inactive) | 19.3 µM (inactive) | 19.1 µM (inactive) | 31.9 µM (inactive) | 18.9 µM (inactive) | 39.5 µM (inactive) | –
14 | C=C1CC[C@@H]2C(C)(C)C(O)CCC2(C)C1COc1ccc2ccc(=O)oc2c1 (some centres undefined) | 12.4 µM (inactive) | – | 18.9 µM (inactive) | 15.5 µM (inactive) | 15.1 µM (inactive) | 18.6 µM (inactive) | 14.9 µM (inactive) | 15.3 µM (inactive) | 18.9 µM (inactive) | – | 14.1 µM | 19.3 µM (inactive) | 18.1 µM (inactive) | 16.3 µM (inactive) | 18.6 µM (inactive) | 18.8 µM (inactive) | 18 µM (inactive) | 22.1 µM (inactive) | 19.8 µM (inactive) | –
15 | COc1c(O)c(OC)c2oc(-c3ccc(O)c(O)c3)c(OC)c(=O)c2c1O | 31.8 µM (inactive) | 24.2 µM (inactive) | 3.52 µM (inactive) | 31.2 µM (inactive) | 17.7 µM (inactive) | 24 µM (inactive) | 27.1 µM (inactive) | – | 10.4 µM (inactive) | 3.13 µM (inactive) | 11.5 µM | 29.6 µM (inactive) | 6.24 µM (inactive) | 56.9 µM (inactive) | 32.7 µM (inactive) | 27.4 µM (inactive) | 3.62 µM (inactive) | 36.1 µM (inactive) | 30.5 µM (inactive) | 23.1 µM (inactive)
16 | C=C1CC(Cn2ccc(=O)[nH]c2=O)(c2ccc(-c3ccccc3)cc2)OC1=O (centres undefined) | 0.234 µM (active) | 1.05 µM (active) | 16.1 µM (inactive) | 0.377 µM (active) | 0.154 µM (active) | 1.65 µM (inactive) | 0.441 µM (active) | – | 1.04 µM (active) | 1.69 µM (inactive) | 1.65 µM | 12.2 µM (inactive) | 1.46 µM (inactive) | 4.6 µM (inactive) | 1.98 µM (inactive) | 4.6 µM (inactive) | 13.6 µM (inactive) | 0.257 µM (active) | 1.03 µM (active) | 1.98 µM (inactive)
